Common to all, as to test: growth of human tumour cells (NCI), 48 h
The test system of assay [1] is PC-3 prostate.
In assay [2] the test system is SNB-75 CNS.
Assay [3] concerns HS 578T breast.
Assay [4] relates to HL-60(TB) leukemia.
In assay [5] the test system is NCI-H226 lung.
In assay [6] the test system is HCT-116 colon.
In assay [7] the test system is KM12 colon.
For assay [8], the system named is A498 renal.
Assay [9] relates to OVCAR-5 ovarian.
Assay [10] concerns A549 NSCLC.

“And” between values parts separate entries of the source, which are not always exact repeats. Equal values may be shown once.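 1) Cells in 96-well plates. 2) Compound, 48 h, 5 concentrations. 3) Linear interpolation between surrounding doses. 4) Unreached endpoint = highest concentration. The concentration for full growth arrest is given as TGI.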 Bounds are passed on as bounds.

`CN(C)C(c1ccccc1)C1COC2Cc3ccccc3C1O2` (stereo not given): the TGI is above 100 µM in assay [1]; 89 µM and 89.4 µM in assay [2]; above 100 µM in assay [3]; above 100 µM in assay [4]; above 100 µM in assay [5]; above 100 µM in [6]. The TGI in [7], in assay [8], in assay [9] and in [10] was above 100 µM in each case.

Regarding `Cc1cccc2c1c(=O)c1c(O)c3c(cc1n2C)OC(C)(C)C=C3`, the TGI in [1], in [2], in assay [3], in assay [4], in [5] and in assay [6] was above 10 µM each time. Also, the TGI in assay [7], in assay [8], in assay [9] and in assay [10] was above 10 µM in each case.

(Values after PubChem BioAssay (NCI).)
